Data as given in patent US10364263B2, “Cyclic phosphates and cyclic phosphoramidates for the treatment of neurologic disorders” (Retrophin, Inc., priority 2015, dated 2019).
Values belong to the compound of their own block, whether it stands above or below them.

Tests used:
[1] = system: PANK2 silenced human neuroblastoma IMR32 cells (PANK2−/−); assay: Coenzyme A assay in PANK2 silenced cells (LC-MS quantification of free CoA); assay type: cell-based; details: compound added twice (24 h + 24 h), relative to 0.1% DMSO controls
Summary of the method: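 PANK2 shRNA-silenced IMR32 neuroblastoma cells were treated with compound (0.1% DMSO) for 24 h, then re-dosed with fresh compound for a further 24 h at 37 °C. TFA extracts of 1×10^6 cells were assayed for free CoA by LC-MS/MS (MRM 768.1→261.6/136.1). Results are given as fold change versus DMSO controls.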

[2] = Stability in mouse plasma; assay type: in vitro ADME; details: mouse, plasma; for t1/2, Mouse Plasma, Diastereoisomer B: 3 µM
Experimental: (§1) Compounds and positive control samples were dissolved in 100% DMSO at 3 mM. To investigate the stability of the test compounds in plasma, samples were made by diluting test compounds into plasma from the stock solutions to obtain a test compound concentration of 3 μM (0.1% DMSO). Before addition of a test compound, 990 μl of plasma were preincubated at 37° C. for 5 min in eppendorf. After addition of a test compound, 70 μl for each time point were transferred to a 96-deepwell plate, previously warmed at 37° C. in a DUBNOFF water bath. Each compound was tested at five time points, in duplicate (10, 20, 30, 40 and 60 min). At each time point, an aliquot of 50 μl was taken and transferred to a new 96-deepwell plate, and the reaction was stopped with 200 μl of 100% acetonitrile containing 0.1% formic acid and the appropriate internal standard. Then samples were centrifuged at 1100×g for 30 min at +4° C. and supernatants were transferred to a new 96-deepwell plate. Samples were evaporated under N2 and reconstituted in H2O/ACN 0.1% Formic Acid (98:2). Analysis was performed without a calibration curve (Acquity UPLC-Waters; SciexAPI4000). Time 0 was obtained by adding acetonitrile before addition of the test compound.

[3] = Stability in human plasma; assay type: in vitro ADME; details: human, plasma, 37° C.
Experimental: as §1

[4] = Diastereoisomer A (upfield shift in 31P NMR), read-out: t1/2, Human Plasma, Diastereoisomer A (converted)
[5] = Diastereoisomer B, read-out: t1/2, Human Plasma, Diastereoisomer B (converted)

half-life at 3 µM [2]: < 9.6 min | half-life at 3 µM [3, 4]: > 60 min
Compound: COC(=O)CCNC(=O)[C@@H]1OP(=O)(N[C@@H](C)C(=O)OCCN2CCOCC2)OCC1(C)C (stereo partly drawn) [compound 27, methyl 3-((4R)-5,5-dimethyl-2-(((S)-1-(2-morpholinoethoxy)-1-oxopropan-2-yl)amino)-2-oxido-1,3,2-dioxaphosphinane-4-carboxamido)propanoate]
PANK2−/− CoA (Fold Increase): fold increase in Coenzyme A (CoA) levels relative to controls [1]: 1.49 Fold Increase

half-life at 3 µM [2]: < 9.6 min | t1/2, Mouse Plasma, Diastereoisomer B [2]: <9.6 min | half-life at 3 µM [3, 4]: > 60 min | half-life at 3 µM [3, 5]: 39 min
Compound: COC(=O)CCNC(=O)[C@@H]1OP(=O)(N[C@H](C)C(=O)OCc2cccnc2)OCC1(C)C (stereo partly drawn) [compound 28, methyl 3-((4R)-5,5-dimethyl-2-oxido-2-(((R)-1-oxo-1-(pyridin-3-ylmethoxy)propan-2-yl)amino)-1,3,2-dioxaphosphinane-4-carboxamido)propanoate]
PANK2−/− CoA (Fold Increase): fold increase in Coenzyme A (CoA) levels relative to controls [1]: 0.87 Fold Increase

half-life at 3 µM [2]: < 9.6 min | t1/2, Mouse Plasma, Diastereoisomer B [2]: <9.6 min | half-life at 3 µM [3, 4]: 49.8 min | half-life at 3 µM [3, 5]: > 60 min
Compound: COC(=O)CCNC(=O)[C@@H]1OP(=O)(N[C@@H](Cc2cccnc2)C(=O)OCc2ccccc2)OCC1(C)C (stereo partly drawn) [compound 30, (2S)-benzyl 2-(((4R)-4-((3-methoxy-3-oxopropyl)carbamoyl)-5,5-dimethyl-2-oxido-1,3,2-dioxaphosphinan-2-yl)amino)-3-(pyridin-3-yl)propanoate]
PANK2−/− CoA (Fold Increase): fold increase in Coenzyme A (CoA) levels relative to controls [1]: 0.93 Fold Increase

half-life at 3 µM [2]: < 9.6 min | t1/2, Mouse Plasma, Diastereoisomer B [2]: <9.6 min | half-life at 3 µM [3, 4]: > 60 min | half-life at 3 µM [3, 5]: > 60 min
Compound: COC(=O)CCNC(=O)[C@@H]1OP(=O)(N[C@@H](C)C(=O)OCCc2scnc2C)OCC1(C)C (stereo partly drawn) [compound 31, methyl 3-((4R)-5,5-dimethyl-2-(((S)-1-(2-(4-methylthiazol-5-yl)ethoxy)-1-oxopropan-2-yl)amino)-2-oxido-1,3,2-dioxaphosphinane-4-carboxamido)propanoate]
PANK2−/− CoA (Fold Increase): fold increase in Coenzyme A (CoA) levels relative to controls [1]: 1.1 Fold Increase

half-life at 3 µM [2]: < 9.6 min | t1/2, Mouse Plasma, Diastereoisomer B [2]: <9.6 min | half-life at 3 µM [3, 4]: > 60 min | half-life at 3 µM [3, 5]: > 60 min
Compound: COC(=O)CCNC(=O)[C@@H]1OP(=O)(N[C@H](C)C(=O)OCCc2scnc2C)OCC1(C)C (stereo partly drawn) [compound 32, methyl 3-((4R)-5,5-dimethyl-2-(((R)-1-(2-(4-methylthiazol-5-yl)ethoxy)-1-oxopropan-2-yl)amino)-2-oxido-1,3,2-dioxaphosphinane-4-carboxamido)propanoate]
PANK2−/− CoA (Fold Increase): fold increase in Coenzyme A (CoA) levels relative to controls [1]: 1.49 Fold Increase

half-life at 3 µM [2]: < 9.6 min | t1/2, Mouse Plasma, Diastereoisomer B [2]: <9.6 min | half-life at 3 µM [3, 4]: > 60 min | half-life at 3 µM [3, 5]: > 60 min
Compound: C[C@H](NP1(=O)OCC(C)(C)[C@H](C(=O)NCCC(=O)OC(C)(C)C)O1)C(=O)OCCc1ccccc1 (stereo partly drawn) [compound 33, tert-butyl 3-((4R)-5,5-dimethyl-2-oxido-2-(((S)-1-oxo-1-phenethoxypropan-2-yl)amino)-1,3,2-dioxaphosphinane-4-carboxamido)propanoate]
PANK2−/− CoA (Fold Increase): fold increase in Coenzyme A (CoA) levels relative to controls [1]: 0.8 Fold Increase

half-life at 3 µM [2]: < 9.6 min | t1/2, Mouse Plasma, Diastereoisomer B [2]: <9.6 min | half-life at 3 µM [3, 4]: > 60 min | half-life at 3 µM [3, 5]: > 60 min
Compound: C[C@H](NP1(=O)OCC(C)(C)[C@H](C(=O)NCCC(=O)OCc2cnccn2)O1)C(=O)OCCc1ccccc1 (stereo partly drawn) [compound 39, phenethyl ((4R)-5,5-dimethyl-2-oxido-4-((3-oxo-3-(pyrazin-2-ylmethoxy)propyl)carbamoyl)-1,3,2-dioxaphosphinan-2-yl)-L-alaninate]
PANK2−/− CoA (Fold Increase): fold increase in Coenzyme A (CoA) levels relative to controls [1]: 2.18 Fold Increase

Continued, compound first:

Compound: COC(=O)CCNC(=O)[C@@H]1OP(=O)(OCOC(=O)[C@H](CC(C)C)NC(C)=O)OCC1(C)C (stereo partly drawn) [Compound No. 73, (((4R)-4-((3-methoxy-3-oxopropyl)carbamoyl)-5,5-dimethyl-2-oxido-1,3,2-dioxaphosphinan-2-yl)oxy)methyl acetyl-L-leucinate]
PANK2−/− CoA (Fold Increase): fold increase in Coenzyme A (CoA) levels relative to controls [1]: 6.92 Fold Increase | half-life at 3 µM [2]: < 9.6 min | t1/2, Mouse Plasma, Diastereoisomer B [2]: <9.6 min | half-life at 3 µM [3, 4]: < 13.8 min | half-life at 3 µM [3, 5]: < 9.6 min

Compound: CC(C)(C)OC(=O)CCNC(=O)[C@@H]1OP(=O)(OCOC(=O)C(C)(C)C)OCC1(C)C (stereo partly drawn) [Compound No. 75, (((4R)-4-((3-(tert-butoxy)-3-oxopropyl)carbamoyl)-5,5-dimethyl-2-oxido-1,3,2-dioxaphosphinan-2-yl)oxy)methyl pivalate]
PANK2−/− CoA (Fold Increase): fold increase in Coenzyme A (CoA) levels relative to controls [1]: 1.52 Fold Increase | half-life at 3 µM [2]: < 9.6 min | t1/2, Mouse Plasma, Diastereoisomer B [2]: <9.6 min | half-life at 3 µM [3, 4]: > 60 min | half-life at 3 µM [3, 5]: < 9.6 min

Compound: COC(=O)CCNC(=O)[C@@H]1OP(=O)(OCOC(=O)C2(C(N)=O)CC2)OCC1(C)C (stereo partly drawn) [Compound No. 83, (((4R)-4-((3-methoxy-3-oxopropyl)carbamoyl)-5,5-dimethyl-2-oxido-1,3,2-dioxaphosphinan-2-yl)oxy)methyl 1-carbamoylcyclopropane-1-carboxylate]
PANK2−/− CoA (Fold Increase): fold increase in Coenzyme A (CoA) levels relative to controls [1]: 12.02 Fold Increase | half-life at 3 µM [2]: < 9.6 min | t1/2, Mouse Plasma, Diastereoisomer B [2]: <9.6 min | half-life at 3 µM [3, 4]: > 60 min | half-life at 3 µM [3, 5]: < 9.6 min

Compound: COC(=O)CCNC(=O)[C@@H]1OP(=O)(OCOC(=O)C2(C)CN(C(=O)OC(C)(C)C)C2)OCC1(C)C (stereo partly drawn) [Compound No. 85, 1-(tert-butyl) 3-((((4R)-4-((3-methoxy-3-oxopropyl)carbamoyl)-5,5-dimethyl-2-oxido-1,3,2-dioxaphosphinan-2-yl)oxy)methyl) 3-methylazetidine-1,3-dicarboxylate]
PANK2−/− CoA (Fold Increase): fold increase in Coenzyme A (CoA) levels relative to controls [1]: 216.8 Fold Increase | half-life at 3 µM [2]: < 9.6 min | t1/2, Mouse Plasma, Diastereoisomer B [2]: <9.6 min | half-life at 3 µM [3, 4]: < 9.6 min | half-life at 3 µM [3, 5]: < 9.6 min

Compound: CC(C)(C)C(=O)OCO[P@@]1(=O)OCC(C)(C)[C@H](C(=O)NCCC(=O)OC2CCNC2)O1 (stereo partly drawn) [Compound No. 92, (((2S,4R)-5,5-dimethyl-2-oxido-4-((3-oxo-3-(pyrrolidin-3-yloxy)propyl)carbamoyl)-1,3,2-dioxaphosphinan-2-yl)oxy)methyl pivalate]
PANK2−/− CoA (Fold Increase): fold increase in Coenzyme A (CoA) levels relative to controls [1]: 5.13 Fold Increase | half-life at 3 µM [2]: < 9.6 min | half-life at 3 µM [3, 4]: 27 min

Compound: CC(C)(C)C(=O)OCO[P@@]1(=O)OCC(C)(C)[C@H](C(=O)NCCC(=O)OC2CCN(Cc3ccccc3)C2)O1 (stereo partly drawn) [Compound No. 93, (((2S,4R)-4-((3-((1-benzylpyrrolidin-3-yl)oxy)-3-oxopropyl)carbamoyl)-5,5-dimethyl-2-oxido-1,3,2-dioxaphosphinan-2-yl)oxy)methyl pivalate]
PANK2−/− CoA (Fold Increase): fold increase in Coenzyme A (CoA) levels relative to controls [1]: 206.8 Fold Increase | half-life at 3 µM [2]: < 9.6 min | half-life at 3 µM [3, 4]: > 60 min

Compound: CC(C)(C)C(=O)OCOP1(=O)OCC(C)(C)[C@H](C(=O)NCCC(=O)OC2CCOC2)O1 (stereo partly drawn) [Compound No. 94, (((4R)-5,5-dimethyl-2-oxido-4-((3-oxo-3-((tetrahydrofuran-3-yl)oxy)propyl)carbamoyl)-1,3,2-dioxaphosphinan-2-yl)oxy)methyl pivalate]
PANK2−/− CoA (Fold Increase): fold increase in Coenzyme A (CoA) levels relative to controls [1]: 13.14 Fold Increase | half-life at 3 µM [2]: < 9.6 min | t1/2, Mouse Plasma, Diastereoisomer B [2]: <9.6 min | half-life at 3 µM [3, 4]: 40.8 min | half-life at 3 µM [3, 5]: < 9.6 min

Compound: CC(C)(C)C(=O)OCOP1(=O)OCC(C)(C)[C@H](C(=O)NCCC(=O)OCc2ncccn2)O1 (stereo partly drawn) [Compound No. 95, (((4R)-5,5-dimethyl-2-oxido-4-((3-oxo-3-(pyrimidin-2-ylmethoxy)propyl)carbamoyl)-1,3,2-dioxaphosphinan-2-yl)oxy)methyl pivalate]
PANK2−/− CoA (Fold Increase): fold increase in Coenzyme A (CoA) levels relative to controls [1]: 54.03 Fold Increase | half-life at 3 µM [2]: < 9.6 min | t1/2, Mouse Plasma, Diastereoisomer B [2]: <9.6 min | half-life at 3 µM [3, 4]: > 60 min | half-life at 3 µM [3, 5]: < 9.6 min

Compound: COC(=O)CCNC(=O)[C@@H]1OP(=O)(OCOC(=O)OCc2cccnc2)OCC1(C)C (stereo partly drawn) [Compound No. 97, Methyl 3-((4R)-5,5-dimethyl-2-oxido-2-((((pyridin-3-ylmethoxy)carbonyl)oxy)methoxy)-1,3,2-dioxaphosphinane-4-carboxamido)propanoate]
PANK2−/− CoA (Fold Increase): fold increase in Coenzyme A (CoA) levels relative to controls [1]: 77.04 Fold Increase | half-life at 3 µM [2]: < 9.6 min | half-life at 3 µM [3, 4]: < 9.6 min
